The results in this text go back to patent publication US3952051A, “Method for crystallization of diamine dicarboxylate” (Asahi Kasei Kogyo Kabushiki Kaisha, priority 1971, dated 1976).

The nature of this data set: Size of crystals collected after neutralization.

Consider hexamethylenediamine adipate, for which the “Average size of crystals” value (Example 1, from aqueous medium, pH 7.5, 60°C.) is 700 microns. Moreover, for the setting “comparative example, methanol as solvent”, the “Grain size of collected crystals” value is listed as “about 250 microns”.
